Converted amounts (≈) assume the structure as drawn. The source made the active and inactive calls. The calls are words filed in the database; no cut-off is given here.
Experiments:
Enterococcus faecium [1] = experiment: Potency index, ratio of berberine MIC to test compound MIC for Enterococcus faecium ATCC 49624; assay type: functional
Enterococcus faecalis [2] = experiment: Potency index, ratio of berberine MIC to test compound MIC for Enterococcus faecalis ATCC 29212; assay type: functional
Escherichia coli = experiment: Antibacterial activity against Escherichia coli ATCC 25922 after 18 hrs by broth microdilution method; assay type: functional; settings: ATCC 25922, 18 h
Enterococcus faecalis [3] = experiment: Antibacterial activity against Enterococcus faecalis ATCC 29212 after 18 hrs by broth microdilution method; assay type: functional; settings: ATCC 29212, 18 h
Bacillus subtilis = experiment: Antibacterial activity against Bacillus subtilis 168 after 18 hrs by broth microdilution method; assay type: functional; settings: subsp. subtilis str. 168, 18 h
Staphylococcus aureus [4] = experiment: Potency index, ratio of berberine MIC to test compound MIC for Staphylococcus aureus ATCC 29213; assay type: functional
Enterococcus faecium [5] = experiment: Antibacterial activity against Enterococcus faecium ATCC 49624 after 18 hrs by broth microdilution method; assay type: functional; settings: ATCC 49624, 18 h
[6] = system: Staphylococcus epidermidis; experiment: Potency index, ratio of berberine MIC to test compound MIC for Staphylococcus epidermidis ATCC 12228; assay type: functional
[7] = system: Staphylococcus epidermidis; experiment: Antibacterial activity against Staphylococcus epidermidis ATCC 12228 after 18 hrs by broth microdilution method; assay type: functional; settings: ATCC 12228, 18 h
Staphylococcus aureus [8] = experiment: Antibacterial activity against Staphylococcus aureus ATCC 29213 after 18 hrs by broth microdilution method; assay type: functional; settings: ATCC 29213, 18 h
Staphylococcus aureus [9] = experiment: Antibacterial activity against methicillin-resistant Staphylococcus aureus ATCC BAA1720 after 18 hrs by broth microdilution method; assay type: functional; settings: ATCC BAA1720, 18 h
Staphylococcus aureus [10] = experiment: Antibacterial activity against methicillin-resistant Staphylococcus aureus ATCC 33592 after 18 hrs by broth microdilution method; assay type: functional; settings: ATCC 33592, 18 h
Staphylococcus aureus [11] = experiment: Antibacterial activity against methicillin-resistant Staphylococcus aureus ATCC BAA41 after 18 hrs by broth microdilution method; assay type: functional; settings: ATCC BAA41, 18 h
Staphylococcus aureus [12] = experiment: Antibacterial activity against methicillin-resistant Staphylococcus aureus ATCC 43300 after 18 hrs by broth microdilution method; assay type: functional; settings: ATCC 43300, 18 h
Staphylococcus aureus [13] = experiment: Antibacterial activity against methicillin-resistant Staphylococcus aureus ATCC 33591 after 18 hrs by broth microdilution method; assay type: functional; settings: ATCC 33591, 18 h
Enterococcus faecalis [14] = experiment: Antibacterial activity against vancomycin-resistant Enterococcus faecalis ATCC 700221 after 18 hrs by broth microdilution method; assay type: functional; settings: ATCC 700221, 18 h
Enterococcus faecalis [15] = experiment: Antibacterial activity against vancomycin-resistant Enterococcus faecalis ATCC 51575 after 18 hrs by broth microdilution method; assay type: functional; settings: ATCC 51575, 18 h
Staphylococcus aureus [16] = experiment: Antibacterial activity against Staphylococcus aureus ATCC 29213 after 10 passages by broth microdilution method; assay type: functional, organism-based
[17] = target: T1, Cell division protein FtsZ (Staphylococcus aureus) (UniProt P0A031); experiment: Inhibition of recombinant Staphylococcus aureus FtsZ polymerization at 8 ug/ml by 90 degree light scattering-based fluorescence spectrometric analysis
T1 sequence (whole entry): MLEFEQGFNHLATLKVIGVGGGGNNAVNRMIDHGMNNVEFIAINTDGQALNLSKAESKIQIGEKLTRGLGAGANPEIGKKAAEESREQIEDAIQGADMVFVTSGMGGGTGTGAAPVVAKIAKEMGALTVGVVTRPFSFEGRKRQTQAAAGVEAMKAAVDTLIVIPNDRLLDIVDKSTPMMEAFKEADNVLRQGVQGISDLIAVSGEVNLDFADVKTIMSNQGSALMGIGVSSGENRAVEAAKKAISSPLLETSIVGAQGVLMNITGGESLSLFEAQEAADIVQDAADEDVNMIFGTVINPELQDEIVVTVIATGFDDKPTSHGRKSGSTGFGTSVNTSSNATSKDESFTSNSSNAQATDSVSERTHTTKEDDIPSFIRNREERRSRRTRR

Staphylococcus aureus [18] = experiment: Ratio of MIC for Staphylococcus aureus ATCC 29213 after and before 11 to 21 serial passages; assay type: functional
[19] = target: T1, Cell division protein FtsZ (Staphylococcus aureus); experiment: Inhibition of recombinant Staphylococcus aureus FtsZ GTPase activity assessed as reduction in inorganic phosphate formation after 30 mins by colorimetric method

Structure (SMILES)	MIC90 (Escherichia coli)	MIC90 (Enterococcus faecalis [3])	MIC90 (Bacillus subtilis)	MIC90 (Enterococcus faecium [5])	MIC90 [7]	MIC90 (Staphylococcus aureus [8])	other results
Fc1ccc(CN2CCCN(CCc3cc(-c4cccs4)nc(-c4ccncc4)n3)CC2)cc1	> 128 µg/mL	16 µg/mL (≈ 33.8 µM)	8 µg/mL (≈ 16.9 µM)	16 µg/mL (≈ 33.8 µM)	8 µg/mL (≈ 16.9 µM)	8 µg/mL (≈ 16.9 µM)	Ratio (Enterococcus faecium [1]): 50 - 100; Ratio (Enterococcus faecalis [2]): 50 - 100; Ratio (Staphylococcus aureus [4]): 50 - 100; Ratio [6]: 50 - 100
Cc1nc(CCN2CCCN(Cc3ccccc3)CC2)cc(-c2cccs2)n1	> 192 µg/mL	> 192 µg/mL	192 µg/mL (≈ 489 µM)	> 192 µg/mL	192 µg/mL (≈ 489 µM)	192 µg/mL (≈ 489 µM)	
COc1ccc2cc3[n+](cc2c1OC)CCc1cc2c(cc1-3)OCO2 [BERBERINE]	> 192 µg/mL	> 192 µg/mL	128 µg/mL	> 192 µg/mL	96 µg/mL	128 µg/mL	MIC90 (Staphylococcus aureus [9]): 192 µg/mL; MIC90 (Staphylococcus aureus [10]): 192 µg/mL; MIC90 (Staphylococcus aureus [11]): 192 µg/mL; MIC90 (Staphylococcus aureus [12]): 192 µg/mL; MIC90 (Staphylococcus aureus [13]): 192 µg/mL; MIC90 (Enterococcus faecalis [14]): > 192 µg/mL; MIC90 (Enterococcus faecalis [15]): > 192 µg/mL
Cc1nc(CCN2CCN(C(=O)OC(C)(C)C)CC2)cc(-c2cccs2)n1	> 192 µg/mL	> 192 µg/mL	> 192 µg/mL	> 192 µg/mL	> 192 µg/mL	> 192 µg/mL	
Cc1nc(CCN2CCCN(Cc3ccc(C(C)(C)C)cc3)CC2)cc(-c2cccs2)n1	128 µg/mL (≈ 285 µM)	64 µg/mL (≈ 143 µM)	64 µg/mL (≈ 143 µM)	64 µg/mL (≈ 143 µM)	32 µg/mL (≈ 71.3 µM)	32 µg/mL (≈ 71.3 µM)	
Cc1nc(CCN2CCNCC2)cc(-c2cccs2)n1	> 192 µg/mL	> 192 µg/mL	> 192 µg/mL	> 192 µg/mL	> 192 µg/mL	> 192 µg/mL	
Cc1nc(CCNCCN2CCOCC2)cc(-c2cccs2)n1	> 192 µg/mL	> 192 µg/mL	> 192 µg/mL	> 192 µg/mL	> 192 µg/mL	> 192 µg/mL	
Fc1cccc(CN2CCCN(CCc3cc(-c4cccs4)nc(-c4ccncc4)n3)CC2)c1	> 128 µg/mL	16 µg/mL (≈ 33.8 µM)	8 µg/mL (≈ 16.9 µM)	16 µg/mL (≈ 33.8 µM)	8 µg/mL (≈ 16.9 µM)	8 µg/mL (≈ 16.9 µM)	Ratio (Enterococcus faecium [1]): 50 - 100; Ratio (Enterococcus faecalis [2]): 50 - 100; Ratio (Staphylococcus aureus [4]): 50 - 100; Ratio [6]: 50 - 100
Cc1nc(CCN2CCCN(Cc3ccc(C(C)C)cc3)CC2)cc(-c2cccs2)n1	128 µg/mL (≈ 294 µM)	64 µg/mL (≈ 147 µM)	64 µg/mL (≈ 147 µM)	64 µg/mL (≈ 147 µM)	32 µg/mL (≈ 73.6 µM)	32 µg/mL (≈ 73.6 µM)	Activity (Staphylococcus aureus [16]): Active; inhibition [17]: Active; Activity (Staphylococcus aureus [18]): Active; inhibition [19]: Dose-dependent effect
c1ccc(CN2CCCN(CCc3cc(-c4cccs4)nc(-c4ccncc4)n3)CC2)cc1	> 128 µg/mL	32 µg/mL (≈ 70.2 µM)	16 µg/mL (≈ 35.1 µM)	32 µg/mL (≈ 70.2 µM)	16 µg/mL (≈ 35.1 µM)	16 µg/mL (≈ 35.1 µM)	Ratio (Enterococcus faecium [1]): 50 - 100; Ratio (Enterococcus faecalis [2]): 50 - 100; Ratio (Staphylococcus aureus [4]): 50 - 100; Ratio [6]: 50 - 100
Cc1nc(CCN2C[C@@H]3C[C@H]2CN3C(=O)OC(C)(C)C)cc(-c2cccs2)n1	> 192 µg/mL	> 192 µg/mL	> 192 µg/mL	> 192 µg/mL	> 192 µg/mL	> 192 µg/mL	
Cc1nc(-c2cccs2)cc([C@H]2CN3CC[C@H]2C[C@@H]3CNC(=O)CCCC(=O)O)n1	384 µg/mL (≈ 896 µM)	> 192 µg/mL	192 µg/mL (≈ 448 µM)	> 192 µg/mL	192 µg/mL (≈ 448 µM)	192 µg/mL (≈ 448 µM)	
Cc1nc(CCN2CCCN(Cc3ccc(F)cc3)CC2)cc(-c2cccs2)n1	> 192 µg/mL	192 µg/mL (≈ 468 µM)	128 µg/mL (≈ 312 µM)	192 µg/mL (≈ 468 µM)	128 µg/mL (≈ 312 µM)	128 µg/mL (≈ 312 µM)	
Cc1nc(CCN2CCN(c3ccc(C(F)(F)F)cc3)CC2)cc(-c2cccs2)n1	> 192 µg/mL	> 192 µg/mL	> 192 µg/mL	> 192 µg/mL	> 192 µg/mL	> 192 µg/mL	
Cc1nc(CCN(C)CCN(C)Cc2ccccc2)cc(-c2cccs2)n1	> 192 µg/mL	> 192 µg/mL	> 192 µg/mL	> 192 µg/mL	> 192 µg/mL	> 192 µg/mL	
Brc1ccc(CN2CCCN(CCc3cc(-c4cccs4)nc(-c4ccncc4)n3)CC2)cc1	128 µg/mL (≈ 239 µM)	8 µg/mL (≈ 15 µM)	4 µg/mL (≈ 7.48 µM)	8 µg/mL (≈ 15 µM)	4 µg/mL (≈ 7.48 µM)	4 µg/mL (≈ 7.48 µM)	Ratio (Enterococcus faecium [1]): 50 - 100; Ratio (Enterococcus faecalis [2]): 50 - 100; Ratio (Staphylococcus aureus [4]): 50 - 100; Ratio [6]: 50 - 100
Cc1nc(CCN2CCCN(Cc3cccc(F)c3)CC2)cc(-c2cccs2)n1	> 192 µg/mL	192 µg/mL (≈ 468 µM)	128 µg/mL (≈ 312 µM)	192 µg/mL (≈ 468 µM)	128 µg/mL (≈ 312 µM)	128 µg/mL (≈ 312 µM)	
Cc1nc(CCN2C[C@@H]3C[C@H]2CN3)cc(-c2cccs2)n1	> 192 µg/mL	> 192 µg/mL	> 192 µg/mL	> 192 µg/mL	> 192 µg/mL	> 192 µg/mL	
Fc1ccc(CN2CCCN(CCc3cc(-c4cccs4)nc(-c4ccncc4)n3)CC2)cc1F	128 µg/mL (≈ 260 µM)	8 µg/mL (≈ 16.3 µM)	4 µg/mL (≈ 8.14 µM)	8 µg/mL (≈ 16.3 µM)	4 µg/mL (≈ 8.14 µM)	4 µg/mL (≈ 8.14 µM)	Ratio (Enterococcus faecium [1]): 50 - 100; Ratio (Enterococcus faecalis [2]): 50 - 100; Ratio (Staphylococcus aureus [4]): 50 - 100; Ratio [6]: 50 - 100
Cc1ccc(CN2CCN(CCc3cc(-c4cccs4)nc(C)n3)CC2)cc1	> 192 µg/mL	> 192 µg/mL	192 µg/mL (≈ 489 µM)	> 192 µg/mL	192 µg/mL (≈ 489 µM)	192 µg/mL (≈ 489 µM)	
Cc1nc(CCN2CCN(Cc3ccc(F)cc3)CC2)cc(-c2cccs2)n1	> 192 µg/mL	> 192 µg/mL	192 µg/mL (≈ 484 µM)	> 192 µg/mL	192 µg/mL (≈ 484 µM)	192 µg/mL (≈ 484 µM)	
Cc1nc(CCNCCN2CCCC2)cc(-c2cccs2)n1	> 192 µg/mL	> 192 µg/mL	> 192 µg/mL	> 192 µg/mL	> 192 µg/mL	> 192 µg/mL	
Cc1nc(CCN2CCCN(Cc3ccccc3F)CC2)cc(-c2cccs2)n1	> 192 µg/mL	> 192 µg/mL	192 µg/mL (≈ 468 µM)	> 192 µg/mL	192 µg/mL (≈ 468 µM)	192 µg/mL (≈ 468 µM)	
Cc1nc(CCN2CCCN(Cc3ccc(F)c(F)c3)CC2)cc(-c2cccs2)n1	> 192 µg/mL	128 µg/mL (≈ 299 µM)	128 µg/mL (≈ 299 µM)	128 µg/mL (≈ 299 µM)	128 µg/mL (≈ 299 µM)	128 µg/mL (≈ 299 µM)	
Cc1nc(CCNCCN2CCCCC2)cc(-c2cccs2)n1	> 192 µg/mL	> 192 µg/mL	> 192 µg/mL	> 192 µg/mL	> 192 µg/mL	> 192 µg/mL	
Cc1nc(CCN2CCN(Cc3ccccc3)CC2)cc(-c2cccs2)n1	> 192 µg/mL	> 192 µg/mL	> 192 µg/mL	> 192 µg/mL	> 192 µg/mL	> 192 µg/mL	

From ChEMBL document CHEMBL4325853, “Design, synthesis and antibacterial evaluation of 2,4-disubstituted-6-thiophenyl-pyrimidines” (Eur J Med Chem, 2019)
